Patent US11981883B2, “Composition containing 1,2-dichloro-3,3,3-trifluoropropene” (DAIKIN INDUSTRIES, LTD., priority 2018, dated 2024)

System: rats
Test: 4-hour single-inhalation exposure test (OECD Guideline No. 436)
Format: in vivo
Method: A 4-hour single-inhalation exposure test was performed on rats by using a mist of HCFO-1223xd according to the OECD Guideline No. 436.

SMILES: FC(F)(F)C(Cl)=CCl [HCFO-1223xd, 1,2-dichloro-3,3,3-trifluoropropene]
- death of rats on inhalation exposure (4-hour single inhalation, mist at a concentration of 5 mg/L): No death of the rats was observed
- acute toxicity (4-hour single-inhalation exposure, OECD Guideline No. 436): low acute toxicity
